From patent US20250281424A1 (New York Blood Center, Inc, priority 2020, published 2025)

Target: T1, human PF4 (Homo sapiens, UniProt P02776)
T1 construct: PF4 is a 70 amino acid, lysine-rich 7.8 kDa platelet-specific protein; made in house; host or cells: Escherichia coli BL21DE3 pLysS (pT7-7) and/or Drosophila S2 cells
T1 sequence (P02776 32-101): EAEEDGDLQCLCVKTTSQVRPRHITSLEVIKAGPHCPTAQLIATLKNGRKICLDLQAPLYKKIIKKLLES
Assay: Inhibition of PF4 tetramer formation (BS3 cross-linking, SDS-PAGE)
Format: biochemical
Settings: for inhibition at 5 µM: 5 μM inhibitor; for inhibition at 5 µM / inhibition at 10 µM / inhibition at 1 µM / inhibition at 3 µM: read-out: % inhibition of PF4 tetramer formation at single concentration of inhibitor; for inhibition at 10 µM: 10 μM inhibitor (column A); for IC50: read-out: IC50 of PF4 tetramer formation inhibition; for inhibition at 1 µM: 1 μM inhibitor; for inhibition at 3 µM: 3 μM inhibitor (column A)
Outline: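 Recombinant human wild-type PF4 (E. coli-expressed, heparin-purified), 10 μg/ml in PBS, incubated with compound 15 min at 37° C or 60 min at room temperature, then cross-linked with 0.2 mM BS3 for 30 min at room temperature. Reducing 12% SDS-PAGE; bands quantified as % tetramer, trimer, dimer, monomer versus compound-free control.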

Structure (SMILES) | inhibition at 5 µM [%] | inhibition at 10 µM [%] | IC50 [µM] | inhibition at 1 µM [%] | inhibition at 3 µM [%]
O=C(c1ccc2c(c1)C(=O)C(C(=O)CN1CCCC1=O)C2=O)c1ccc2c(c1)C(=O)C(C(=O)CN1CCCC1=O)C2=O (centres unmarked) [Example 183, 5-{1,3-dioxo-2-[2-(2-oxopyrrolidin-1-yl)acetyl]-2,3-dihydro-1H-indene-5-carbonyl}-2-[2-(2-oxopyrrolidin-1-yl)acetyl]-2,3-dihydro-1H-indene-1,3-dione] | 87 | 100 | 4.3 |  | 
CCCCc1ccc(NC(=O)C2C(=O)c3ccc(S(=O)(=O)c4ccc5c(c4)C(=O)C(C(=O)Nc4ccc(CCCC)cc4)C5=O)cc3C2=O)cc1 (centres unmarked) [Example 102] | 78 | 100 | 2.9 |  | 
COCCOCC(=O)C1C(=O)c2ccc(C(=O)c3ccc4c(c3)C(=O)C(C(=O)COCCOC)C4=O)cc2C1=O (centres unmarked) [Example 395, 2-[2-(2-methoxyethoxy)acetyl]-5-{2-[2-(2-methoxyethoxy)acetyl]-1,3-dioxo-2,3-dihydro-1H-indene-5-carbonyl}-2,3-dihydro-1H-indene-1,3-dione] |  |  |  | 2 | 13
O=C(Nc1ccccc1)C1C(=O)c2ccc(S(=O)(=O)c3ccc4c(c3)C(=O)C(C(=O)Nc3ccccc3)C4=O)cc2C1=O (centres unmarked) [Example 37, 5,5′-sulphonylbis(1,3-dioxo-indan-2-carboxylic acid (phenyl)-amide)] |  |  | ~1 |  | 
O=C1c2ccc(S(=O)(=O)c3ccc4c(c3)C(=O)C(C(=O)C3CCC3)C4=O)cc2C(=O)C1C(=O)C1CCC1 (centres unmarked) [Example 296, 2-cyclobutanecarbonyl-5-[(2-cyclobutanecarbonyl-1,3-dioxo-2,3-dihydro-1H-inden-5-yl)sulfonyl]-2,3-dihydro-1H-indene-1,3-dione] |  |  |  | 22 | 36
CC(C)(C)OC(=O)NCCCC(=O)C1C(=O)c2ccc(S(=O)(=O)c3ccc4c(c3)C(=O)C(C(=O)CCCNC(=O)OC(C)(C)C)C4=O)cc2C1=O (centres unmarked) [Example 387, tert-butyl N-[4-(5-{[2-(4-{[(tert-butoxy)carbonyl]amino}butanoyl)-1,3-dioxo-2,3-dihydro-1H-inden-5-yl]sulfonyl}-1,3-dioxo-2,3-dihydro-1H-inden-2-yl)-4-oxobutyl]carbamate] |  |  |  | 16 | 52
CN(CC(=O)C1C(=O)c2ccc(C(=O)c3ccc4c(c3)C(=O)C(C(=O)CN(C)C(=O)OC(C)(C)C)C4=O)cc2C1=O)C(=O)OC(C)(C)C (centres unmarked) [Example 264, tert-butyl N-(2-{5-[2-(2-{[(tert-butoxy)carbonyl](methyl)amino}acetyl)-1,3-dioxo-2,3-dihydro-1H-indene-5-carbonyl]-1,3-dioxo-2,3-dihydro-1H-inden-2-yl}-2-oxoethyl)-N-methylcarbamate] |  |  | 9.83 | 72 | 75
CC(C)(C)OC(=O)N1CCOC(C(=O)C2C(=O)c3ccc(C(=O)c4ccc5c(c4)C(=O)C(C(=O)C4CN(C(=O)OC(C)(C)C)CCO4)C5=O)cc3C2=O)C1 (centres unmarked) [Example 240, tert-butyl 2-[5-(2-{4-[(tert-butoxy)carbonyl]morpholine-2-carbonyl}-1,3-dioxo-2,3-dihydro-1H-indene-5-carbonyl)-1,3-dioxo-2,3-dihydro-1H-indene-2-carbonyl]morpholine-4-carboxylate] |  |  |  | 14 | 32
CSCCCC(=O)C1C(=O)c2ccc(C(=O)c3ccc4c(c3)C(=O)C(C(=O)CCCSC)C4=O)cc2C1=O (centres unmarked) [Example 284, 2-[4-(methylsulfanyl)butanoyl]-5-{2-[4-(methylsulfanyl)butanoyl]-1,3-dioxo-2,3-dihydro-1H-indene-5-carbonyl}-2,3-dihydro-1H-indene-1,3-dione] |  | 81 | 10 |  | 
